Here are results for two compounds from article PMC4950264 (Molecular Ecology, 2016).

The experiment concerns the target T1, CYP6Z1 (Anopheles funestus, UniProt Z9NKG6IF05).
T1 sequence (Z9NKG6IF05 1-492): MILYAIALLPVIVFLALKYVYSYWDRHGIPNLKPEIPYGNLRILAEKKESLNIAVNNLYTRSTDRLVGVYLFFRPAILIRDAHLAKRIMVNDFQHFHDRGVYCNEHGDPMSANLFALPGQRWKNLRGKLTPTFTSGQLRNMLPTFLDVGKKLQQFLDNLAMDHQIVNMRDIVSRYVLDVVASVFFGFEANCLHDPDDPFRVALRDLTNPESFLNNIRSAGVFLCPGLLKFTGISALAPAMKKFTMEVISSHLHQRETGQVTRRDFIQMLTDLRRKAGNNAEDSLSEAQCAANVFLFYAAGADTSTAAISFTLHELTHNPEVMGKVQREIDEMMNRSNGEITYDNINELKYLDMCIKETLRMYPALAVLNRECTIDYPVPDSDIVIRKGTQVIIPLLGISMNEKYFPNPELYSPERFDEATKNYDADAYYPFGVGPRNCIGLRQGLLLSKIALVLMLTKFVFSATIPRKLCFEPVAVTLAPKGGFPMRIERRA

Compound `Clc1ccc(C(c2ccc(Cl)cc2)C(Cl)(Cl)Cl)cc1` [DDT] yielded an IC50 of 8.9 µM.

The compound `CNC(=O)Oc1cccc2c1OC(C)(C)O2` [bendiocarb] gave an IC50 of 9.5 µM.
